Test results: patent US12582654B2, “Cyano-substituted pyridine and cyano-substituted pyrimidine compound and preparation method therefor and application thereof” (BEIJING SCITECH-MQ PHARMACEUTICALS LIMITED, priority 2019, dated 2026)

What was measured:
Ba/F3 ETV6-FGFR4 cells = target: T1, Ba/F3 ETV6-FGFR4 cells (Homo sapiens, UniProt P22455); assay: Inhibition of cell proliferation (CCK-8), Ba/F3 ETV6-FGFR4 cells; format: cell-based; details: 72 hours of incubation, read-out: Ba/F3 ETV6-FGFR4 IC50
T1 construct: fused on or other part: N-terminal part of ETV6 (TEL), the oligomerising partner that makes the FGFR4 kinase constitutively active; P41212 (Transcription factor ETV6)
Experimental: (§1) Compounds were assayed for inhibiting cell proliferation, and the specific method was as follows: • 1. Cells were cultured to a logarithmic growth phase, pipetted evenly, transferred to a 15 mL centrifuge tube, and centrifuged at 1000 rpm at room temperature for 4 minutes; • 2. The supernatant was discarded; 5 mL of complete medium was added and pipetted evenly; 10 μL of cell suspension was weighed, mixed well with 10 μL of 0.4% trypan blue, and counted under a cell counter; the proportion of living cells was ensured to be above 90%; • 3. The cell suspension was seeded into a 96-well plate (80 μL of cell suspension per well) according to the conditions shown in Table 5; in the outer 36 wells of the 96-well plate, no cells were added but only sterile water was added; only the inner 60 wells were used for cell assay and control; • 4. 5× compound dilution: the compounds were serially diluted 4-fold to give a total of 9 concentrations; 80-fold overall dilution was completed with complete medium, the resulting concentration was 5 times the final drug concentration, and DMSO concentration was 1.25%; • 5. 20 μL of the corresponding compounds with different concentrations were added to each well of assay wells of the 96-well plate; 20 μL of complete medium was added to positive and negative control wells and shaken well; and the final concentration of DMSO in each well was 0.25%; • 6. After 72 hours of incubation, 10 μL of CCK-8 reagent was added to each well and further incubated at 37° C. for 1-2 hours; and the OD value was read at 450 nm; 7. Cell survival rate (%)=[(As−Ab)/(Ac−Ab)]*100% • As: Assay well (medium containing cells, CCK-8, compound) • Ac: Control well (medium containing cells, CCK-8) • Ab: Blank well (medium without cell and compound, CCK-8) • 8. The values were imported into Graphpad Prism 5 software for IC50 calculation.

FGFR4 kinase = FGFR4 kinase (Homo sapiens, UniProt P22455); assay: Inhibition of FGFR4 kinase activity (ULight-labeled JAK-1 peptide, EU665/EU615 reading); format: biochemical; details: FGFR4 kinase 3.85 nM, ATP 100 μM, enzymatic reaction 2 hours
Experimental: (§2) Assay of activity of small molecule compounds on inhibiting FGFR4 kinase and FGFR4 V550L mutant kinase. The assay method was as follows:
(§3) 1) Dilution of Compounds:
(§4) In a 96-well plate a, the compounds were serially diluted 3-fold with DMSO to form 11 concentrations, and the 12th concentration was pure DMSO (as a positive control); In a new 96-well plate b, the above solutions were diluted 25-fold with ultrapure water (DMSO concentration was 4%).
(§5) 2) Transferring Compounds to a 384-Well Plate:
(§6) The above solutions of compounds diluted with ultrapure water in the 96-well plate b were pipetted into corresponding wells of a 384-well plate.
(§7) 3) Adding 4× kinase solution: 2.5 μl of the above 4× kinase solutions were pipetted with a multi-channel pipette into corresponding reaction wells of the 384-well plate, and the mixture was mixed well and pre-reacted at room temperature for 5 minutes.
(§8) 4) Adding 2× substrate/ATP mixture: 5 μl of the above 2× substrate/ATP mixtures were pipetted with a multi-channel pipette into corresponding reaction wells of the 384-well plate.
(§9) 5) Negative control: negative control wells were set up in the 384-well plate by adding 2.5 μl of 4× substrate, 2.5 μl of 4× enzyme solution, 2.5 μl of 1× kinase Assay Buffer and 2.5 μl of ultrapure water containing 4% DMSO to each well.
(§10) 6) Centrifuging, mixing well, and reacting at room temperature in the dark for 2 hours.
(§11) 7) Terminating the Enzymatic Reaction:
(§12) 5 μl of the above 4× stop solutions were pipetted into corresponding wells of the 384-well plate, and the mixture was centrifuged, mixed well, and then reacted at room temperature for 5 minutes.
(§13) 8) Development of the Reaction:
(§14) 5 μl of the above 4× detection solutions were pipetted into corresponding wells of the 384-well plate, and the mixture was centrifuged, mixed well, and then reacted at room temperature for 1 hour.
(§15) 9) The 384-well plate was placed into a plate reader, and the signal was detected using the appropriate program.
(§16) 10) Analysis of IC50: Reading of well=10000*EU665 value/EU615 value Inhibition rate=(reading of positive control well−reading of assay well)/(reading of positive control well−reading of negative control well)*100%
(§17) The corresponding IC50 can be calculated by inputting the drug concentrations and corresponding inhibition rates into GraphPad Prism 5 and processing.
Assay Conditions for Screening FGFR4 Kinase Activity Inhibitory Molecule:
The final concentration of FGFR4 kinase in the reaction system was 3.85 nM, the final concentration of ATP was 100 μM, the final concentration of substrate ULight™-labeled JAK-1 (Tyr1023) Peptide was 100 nM, and the time for enzymatic reaction was 2 hours.
The highest final concentration of the compound in the reaction system was 2.5 μM. After serial 3-fold dilution, there were 11 concentrations in total, and the lowest final concentration was 0.042 nM. The final concentration of DMSO was 1%.

FGFR4 V550L kinase = FGFR4 V550L kinase (Homo sapiens, UniProt P22455, V550L); assay: Inhibition of FGFR4 V550L mutant kinase activity (ULight-labeled PolyGT, EU665/EU615 reading); format: biochemical; details: FGFR4 V550L kinase 1 nM, ATP 10 μM, enzymatic reaction 2 hours
Experimental: as §2, §3, §4, §5, §6, §7, §8, §9, §10, §11, §12, §13, §14, §15, §16, §17
Assay Conditions for Screening FGFR4 V550L Kinase Activity Inhibitory Molecule:
The final concentration of FGFR4 V550L kinase in the reaction system was 1 nM, the final concentration of ATP was 10 μM, the final concentration of substrate ULight™-labeled PolyGT was 100 nM, and the time for enzymatic reaction was 2 hours.
The highest final concentration of the compound in the reaction system was 2.5 μM. After seral 3-fold dilution, there were 11 concentrations in total, and the lowest final concentration was 0.042 nM. The final concentration of DMSO was 1%.

[1] = target: T2, Ba/F3 ETV6-FGFR4-V550L cells (Homo sapiens, UniProt P22455, V550L, cells depend on it); assay: Inhibition of cell proliferation (CCK-8), Ba/F3 ETV6-FGFR4-V550L cells; format: cell-based; details: 72 hours of incubation, read-out: Ba/F3 ETV6-FGFR4-V550L IC50
T2 construct: fused on or other part: N-terminal part of ETV6 (TEL), the oligomerising partner of the fusion; already named as the first entry; P41212 (Transcription factor ETV6)
Experimental: as §1

FGFR4 kinase, sequence (P22455 22-802): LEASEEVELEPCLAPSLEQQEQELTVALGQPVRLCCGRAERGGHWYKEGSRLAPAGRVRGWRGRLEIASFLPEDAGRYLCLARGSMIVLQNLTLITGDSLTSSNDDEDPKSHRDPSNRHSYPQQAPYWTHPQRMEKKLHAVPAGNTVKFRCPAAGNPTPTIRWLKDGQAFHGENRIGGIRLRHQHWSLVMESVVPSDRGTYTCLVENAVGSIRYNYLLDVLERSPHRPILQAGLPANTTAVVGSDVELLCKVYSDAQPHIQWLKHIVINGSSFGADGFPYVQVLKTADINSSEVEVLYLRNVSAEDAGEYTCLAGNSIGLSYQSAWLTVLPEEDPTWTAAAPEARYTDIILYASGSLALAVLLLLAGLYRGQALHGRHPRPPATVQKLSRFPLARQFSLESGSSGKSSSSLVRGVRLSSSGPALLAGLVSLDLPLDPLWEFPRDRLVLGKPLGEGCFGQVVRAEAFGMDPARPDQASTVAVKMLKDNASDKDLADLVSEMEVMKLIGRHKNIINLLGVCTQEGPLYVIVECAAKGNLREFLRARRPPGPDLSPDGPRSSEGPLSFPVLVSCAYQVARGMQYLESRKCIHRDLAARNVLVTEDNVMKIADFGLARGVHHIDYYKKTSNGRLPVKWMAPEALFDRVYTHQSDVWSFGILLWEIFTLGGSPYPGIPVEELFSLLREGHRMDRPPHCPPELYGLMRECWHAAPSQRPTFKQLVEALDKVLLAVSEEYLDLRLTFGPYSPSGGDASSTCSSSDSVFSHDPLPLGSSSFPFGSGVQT
FGFR4 V550L kinase, sequence (P22455 22-802 V550L): as the sequence (P22455 22-802) above, with V529L counted along it
T1 sequence (P22455 whole entry, change not shown, the tested form may be a part): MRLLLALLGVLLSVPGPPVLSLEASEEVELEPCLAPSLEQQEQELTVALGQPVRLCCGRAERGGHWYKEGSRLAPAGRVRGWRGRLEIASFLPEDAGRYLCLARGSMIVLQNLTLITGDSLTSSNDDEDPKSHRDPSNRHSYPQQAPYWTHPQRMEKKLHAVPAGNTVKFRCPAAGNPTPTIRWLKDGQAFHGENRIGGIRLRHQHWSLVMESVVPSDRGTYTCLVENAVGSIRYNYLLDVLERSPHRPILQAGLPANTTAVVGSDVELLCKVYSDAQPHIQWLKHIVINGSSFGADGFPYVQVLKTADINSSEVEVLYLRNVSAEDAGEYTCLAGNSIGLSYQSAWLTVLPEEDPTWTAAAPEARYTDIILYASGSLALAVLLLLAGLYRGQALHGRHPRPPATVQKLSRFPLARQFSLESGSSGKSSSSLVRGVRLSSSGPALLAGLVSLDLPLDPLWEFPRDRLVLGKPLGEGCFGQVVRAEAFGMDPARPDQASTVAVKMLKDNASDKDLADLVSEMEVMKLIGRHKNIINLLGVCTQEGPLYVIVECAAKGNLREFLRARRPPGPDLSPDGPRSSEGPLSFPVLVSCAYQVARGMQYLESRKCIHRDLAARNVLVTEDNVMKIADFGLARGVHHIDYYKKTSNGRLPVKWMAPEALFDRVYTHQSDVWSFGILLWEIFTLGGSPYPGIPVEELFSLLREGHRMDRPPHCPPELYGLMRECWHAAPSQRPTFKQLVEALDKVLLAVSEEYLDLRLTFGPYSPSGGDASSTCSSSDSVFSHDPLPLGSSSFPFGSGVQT
T2 sequence (P22455 whole entry V550L, the tested form may be a part): as the sequence (P22455 whole entry, change not shown, the tested form may be a part) above, with V550L counted along it

Compound	GI50 (Ba/F3 ETV6-FGFR4 cells) [µM]	IC50 (FGFR4 kinase) [µM]	IC50 (FGFR4 V550L kinase) [µM]	GI50 [1] [µM]
C=CC(=O)Nc1cc(N2CCC(N3CCN(C)CC3=O)CC2)ccc1Nc1ncc(C#N)c(Nc2ccccc2OC(C)C)n1 [Example 46, N-(2-((5-cyano-4-((2-isopropoxyphenyl)amino)pyrimidin-2-yl)amino)-5-(4-(4-methyl-2-oxopiperazin-1-yl)piperidin-1-yl)phenyl) acrylamide]	≤ 0.01	0.01 to 0.05	0.01 to 0.05	≤ 0.01
C=CC(=O)Nc1cc(N2CCN(CC)CC2)ccc1Nc1ncc(C#N)c(Nc2ccc(CCC)cc2OC(C)C)n1 [Example 38, N-(2-((5-cyano-4-((2-isopropoxy-4-propylphenyl)amino)pyrimidin-2-yl)amino)-5-(4-ethylpiperazin-1-yl)phenyl) acrylamide]	0.01 to 0.05	0.05 to 0.1	0.05 to 0.1	0.01 to 0.05
C=CC(=O)Nc1cc(N2CCC(N3CCOCC3)CC2)ccc1Nc1ncc(C#N)c(Nc2ccccc2OC(C)C)n1 [Example 5, N-(2-((5-cyano-4-((2-isopropoxyphenyl)amino)pyrimidin-2-yl)amino)-5-(4-morpholinopiperidin-1-yl)phenyl) acrylamide]	≤ 0.01	0.05 to 0.1	0.01 to 0.05	≤ 0.01
C=CC(=O)Nc1cc(N2CCC(N3CCN(C)CC3)CC2)c(F)cc1Nc1ncc(C#N)c(Nc2ccc(F)cc2OC(C)C)n1 [Example 40, N-(2-((5-cyano-4-((4-fluoro-2-isopropoxyphenyl)amino)pyrimidin-2-yl)amino)-4-fluoro-5-(4-(4-methylpiperazin-1-yl)piperidin-1-yl)phenyl) acrylamide]	≤ 0.01	0.01 to 0.05	0.01 to 0.05	≤ 0.01
C=CC(=O)Nc1cc(N2CCN(CC)CC2)ccc1Nc1ncc(C#N)c(Nc2cc(C#N)ccc2OC(C)C)n1 [Example 25, N-(2-((5-cyano-4-((5-cyano-2-isopropoxyphenyl)amino)pyrimidin-2-yl)amino)-5-(4-ethylpiperazin-1-yl)phenyl) acrylamide]	0.01 to 0.05	0.05 to 0.1	0.01 to 0.05	0.01 to 0.05
C=CC(=O)Nc1cc(N2CCC(N3CCN(C)CC3)CC2)ccc1Nc1ncc(C#N)c(Nc2ccccc2S(=O)(=O)C(C)C)n1 [Example 80, N-(2-((5-cyano-4-((2-(isopropylsulfonyl)phenyl)amino)pyrimidin-2-yl)amino)-5-(4-(4-methylpiperazin-1-yl)piperidin-1-yl)phenyl) acrylamide]	≤ 0.01	≤ 0.01	≤ 0.01	≤ 0.01
C=CC(=O)Nc1cc(N2CCN(CC)CC2)ccc1Nc1ncc(C#N)c(Nc2ccc(F)cc2OC(C)C)n1 [Example 27, N-(2-((5-cyano-4-((4-fluoro-2-isopropoxyphenyl)amino)pyrimidin-2-yl)amino)-5-(4-ethylpiperazin-1-yl)phenyl) acrylamide]	≤ 0.01	≤ 0.01	≤ 0.01	≤ 0.01
C=CC(=O)Nc1cc(N2CCC(N3CCC(C)(O)CC3)CC2)ccc1Nc1ncc(C#N)c(Nc2ccccc2OC(C)C)n1 [Example 42, N-(2-((5-cyano-4-((2-isopropoxyphenyl)amino)pyrimidin-2-yl)amino)-5-(4-hydroxy-4-methyl-[1,4′-bipiperidin]-1′-yl)phenyl) acrylamide]	≤ 0.01	≤ 0.01	≤ 0.01	≤ 0.01
C=CC(=O)Nc1cc(N2CCC(N3CCN(C)CC3)CC2)ccc1Nc1ncc(C#N)c(Nc2ccc(C(N)=O)cc2OC(C)C)n1 [Example 41, 4-((2-((2-acrylamido-4-(4-(4-methylpiperazin-1-yl)piperidin-1-yl)phenyl)amino)-5-cyanopyrimidin-4-yl)amino)-3-isopropoxybenzamide]	0.1 to 1	0.01 to 0.05	≤ 0.01	0.1 to 1

The next lines start with the values.

GI50 (Ba/F3 ETV6-FGFR4 cells) [µM]	IC50 (FGFR4 kinase) [µM]	IC50 (FGFR4 V550L kinase) [µM]	GI50 [1] [µM]	Compound
≤ 0.01	0.01 to 0.05	≤ 0.01	≤ 0.01	C=CC(=O)Nc1cc(N2CCC(N(C)CCN(C)C)CC2)ccc1Nc1ncc(C#N)c(Nc2ccccc2OC(C)C)n1 [Example 57, N-(2-((5-cyano-4-((2-isopropoxyphenyl)amino)pyrimidin-2-yl)amino)-5-(4-((2-(dimethylamino)ethyl)(methyl)amino)piperidin-1-yl)phenyl) acrylamide]
≤ 0.01	≤ 0.01	≤ 0.01	≤ 0.01	C=CC(=O)Nc1cc(N2CCC(N(C)C3CCOC3)CC2)ccc1Nc1ncc(C#N)c(Nc2ccccc2OC(C)C)n1 (centres unmarked) [Example 77, N-(2-((5-cyano-4-((2-isopropoxyphenyl)amino)pyrimidin-2-yl)amino)-5-(4-(methyl (tetrahydrofuran-3-yl)amino)piperidin-1-yl)phenyl) acrylamide]
≤ 0.01	0.01 to 0.05	≤ 0.01	≤ 0.01	C=CC(=O)Nc1cc(N2CCC(N(C)C)CC2)ccc1Nc1ncc(C#N)c(Nc2ccccc2OC(C)C)n1 [Example 2, N-(2-((5-cyano-4-((2-isopropoxyphenyl)amino)pyrimidin-2-yl)amino)-5-(4-(dimethylamino)piperidin-1-yl)phenyl) acrylamide]
≤ 0.01	0.01 to 0.05	≤ 0.01	≤ 0.01	C=CC(=O)Nc1cc(N2CCC(N(C)CCO)CC2)ccc1Nc1ncc(C#N)c(Nc2ccccc2OC(C)C)n1 [Example 60, N-(2-((5-cyano-4-((2-isopropoxyphenyl)amino)pyrimidin-2-yl)amino)-5-(4-((2-hydroxyethyl) (methyl)amino)piperidin-1-yl)phenyl) acrylamide]
≤ 0.01	≤ 0.01	≤ 0.01	≤ 0.01	C=CC(=O)Nc1cc(N2CCC(N(C)C3CCOCC3)CC2)ccc1Nc1ncc(C#N)c(Nc2ccccc2OC(C)C)n1 [Example 78, N-(2-((5-cyano-4-((2-isopropoxyphenyl)amino)pyrimidin-2-yl)amino)-5-(4-(methyl(tetrahydro-2H-pyran-4-yl)amino)piperidin-1-yl)phenyl) acrylamide]
